# According to ChEMBL document CHEMBL1153472 (Bioorg Med Chem Lett, 2009):
# What was measured:
# [1] = biological target: Beta-3 adrenergic receptor (Homo sapiens, UniProt P13945); assay: Agonist activity at human recombinant adrenergic beta3 receptor expressed in CHO cells assessed as stimulation of cAMP level after 1 hr by enzyme immunoassay; format: functional, cell-based
# [2] = biological target: Beta-1 adrenergic receptor (Homo sapiens, UniProt P08588); assay: Agonist activity at human recombinant adrenergic beta-1 receptor expressed in CHO cells assessed as stimulation of cAMP level after 1 hr by enzyme immunoassay; format: functional, cell-based
# [3] = AUC (0 to 24 hrs) in po dosed dog; format: ADME, organism-based, Canis lupus familiaris; set-up: time < 24 hr, route oral; details: plasma
# [4] = Cmax in po dosed dog; format: ADME, organism-based, Canis lupus familiaris; set-up: route oral; details: in vivo
# [5] = biological target: Beta-3 adrenergic receptor (Canis lupus familiaris, UniProt O02662); assay: Agonist activity at dog recombinant adrenergic beta3 receptor expressed in CHO cells assessed as stimulation of cAMP level after 1 hr by enzyme immunoassay; format: functional, cell-based
# [6] = test system: Canis familiaris; assay: Inhibition of carbachol-induced increase in intravesical pressure in intraduodenally dosed Beagle dog overactive bladder model administered after carbachol challenge followed by reinjection of carbachol 30 mins post drug dose measured for 180 mins; format: functional; details: Canis lupus familiaris, intraduodenal
# [7] = biological target: Beta-2 adrenergic receptor (Homo sapiens, UniProt P07550); assay: Agonist activity at human recombinant adrenergic beta2 receptor expressed in CHO cells assessed as stimulation of cAMP level after 1 hr by enzyme immunoassay; format: functional, cell-based
# [8] = Half life in iv dosed dog; format: ADME, organism-based, Canis lupus familiaris; details: in vivo
# [9] = Total clearance in iv dosed dog; format: ADME, organism-based, Canis lupus familiaris; details: in vivo
# [10] = Oral bioavailability in dog; format: ADME, organism-based, Canis lupus familiaris; details: in vivo
# [11] = Protein binding in dog; format: ADME, organism-based, Canis lupus familiaris; details: in vivo, read-out: PB (converted)
# Sequence of Beta-3 adrenergic receptor (Homo sapiens, UniProt P13945) (P13945 whole entry): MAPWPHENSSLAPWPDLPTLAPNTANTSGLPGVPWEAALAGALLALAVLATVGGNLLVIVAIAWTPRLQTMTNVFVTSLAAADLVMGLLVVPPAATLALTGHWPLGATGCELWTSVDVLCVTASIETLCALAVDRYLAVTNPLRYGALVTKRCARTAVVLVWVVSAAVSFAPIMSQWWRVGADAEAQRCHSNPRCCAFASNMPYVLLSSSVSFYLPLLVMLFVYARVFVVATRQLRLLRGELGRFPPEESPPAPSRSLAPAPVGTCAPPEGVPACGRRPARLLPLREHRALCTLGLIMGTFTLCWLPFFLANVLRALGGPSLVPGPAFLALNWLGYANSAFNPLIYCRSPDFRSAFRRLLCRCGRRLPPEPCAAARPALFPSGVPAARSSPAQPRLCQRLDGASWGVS
# Sequence of Beta-1 adrenergic receptor (P08588 whole entry): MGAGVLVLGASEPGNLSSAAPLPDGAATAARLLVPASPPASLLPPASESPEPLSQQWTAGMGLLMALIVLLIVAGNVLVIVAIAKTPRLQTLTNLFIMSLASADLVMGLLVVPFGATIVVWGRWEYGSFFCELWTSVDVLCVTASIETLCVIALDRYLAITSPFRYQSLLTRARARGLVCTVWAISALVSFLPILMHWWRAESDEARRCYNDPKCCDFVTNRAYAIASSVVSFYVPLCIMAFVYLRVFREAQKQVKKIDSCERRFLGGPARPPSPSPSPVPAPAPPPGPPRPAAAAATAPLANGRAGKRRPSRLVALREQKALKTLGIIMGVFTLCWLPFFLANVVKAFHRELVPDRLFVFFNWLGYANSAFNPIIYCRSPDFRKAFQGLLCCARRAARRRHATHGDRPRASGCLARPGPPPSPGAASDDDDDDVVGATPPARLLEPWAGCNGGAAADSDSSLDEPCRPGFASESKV
# Sequence of Beta-2 adrenergic receptor (P07550 whole entry): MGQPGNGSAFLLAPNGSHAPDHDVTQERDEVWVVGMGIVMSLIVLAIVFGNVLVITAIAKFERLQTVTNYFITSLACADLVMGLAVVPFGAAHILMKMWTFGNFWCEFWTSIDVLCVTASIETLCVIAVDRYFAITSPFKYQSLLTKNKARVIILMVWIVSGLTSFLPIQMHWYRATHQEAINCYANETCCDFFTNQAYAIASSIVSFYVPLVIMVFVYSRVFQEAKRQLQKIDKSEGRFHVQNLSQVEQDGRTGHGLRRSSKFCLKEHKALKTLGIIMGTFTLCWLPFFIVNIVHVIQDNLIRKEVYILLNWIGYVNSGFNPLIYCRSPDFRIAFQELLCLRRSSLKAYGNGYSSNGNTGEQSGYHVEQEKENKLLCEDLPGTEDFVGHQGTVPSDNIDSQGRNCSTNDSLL
# Sequence of Beta-3 adrenergic receptor (Canis lupus familiaris, UniProt O02662) (O02662 whole entry): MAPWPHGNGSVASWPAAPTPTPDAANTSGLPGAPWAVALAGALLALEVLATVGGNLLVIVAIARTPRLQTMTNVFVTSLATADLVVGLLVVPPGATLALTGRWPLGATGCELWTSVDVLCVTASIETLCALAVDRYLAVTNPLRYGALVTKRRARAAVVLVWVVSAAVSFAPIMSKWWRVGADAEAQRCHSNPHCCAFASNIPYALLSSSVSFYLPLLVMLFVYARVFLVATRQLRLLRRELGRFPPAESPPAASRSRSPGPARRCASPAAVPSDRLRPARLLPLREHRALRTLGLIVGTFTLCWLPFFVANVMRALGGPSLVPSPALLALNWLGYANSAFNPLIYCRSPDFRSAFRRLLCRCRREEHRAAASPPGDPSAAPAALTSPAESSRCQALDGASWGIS
SMILES,EC50 [1],EC50 [2],AUC(0-t) at 24 h [3],Cmax [4],EC50 [5],ED50 [6],EC50 [7],half-life [8],clearance [9],bioavailability [10],fraction unbound [11]
CC(C)Oc1cc(-c2ccc(CCN[C@@H](C)[C@H](O)c3cccc(O)c3)cc2)ccc1C(=O)NS(C)(=O)=O,0.044 nM,130 nM,7.3 ng·h/mL,2.9 ng/mL,–,–,–,–,–,–,–
CC(C)Oc1cc(-c2ccc(CCN[C@@H](C)[C@H](O)c3ccc(O)cc3)cc2)ccc1C(=O)NS(C)(=O)=O,0.16 nM,290 nM,117 ng·h/mL,23.2 ng/mL,1 nM,5.9 mg/kg,> 10000 nM,6.7 h,7.9 mL/min/kg,56%,0.1
CC(C)Cc1cc(-c2ccc(C[C@@H](C)NC[C@H](O)c3ccccc3)cc2)ccc1C(=O)NS(C)(=O)=O,0.1 nM,73 nM,–,–,–,–,–,–,–,–,–
CS(=O)(=O)NC(=O)c1ccc(-c2ccc(CCNC[C@H](O)c3cccc(N)c3)cc2)cc1OC1CCCCC1,1.2 nM,> 1000 nM,79.3 ng·h/mL,6.1 ng/mL,–,–,–,–,–,–,–
CS(=O)(=O)NC(=O)c1ccc(-c2ccc(CCNC[C@H](O)c3ccc(N)cc3)cc2)cc1OC1CCCCC1,–,> 1000 nM,–,–,–,–,–,–,–,–,–
C[C@H](NCCc1ccc(-c2ccc(C(=O)NS(C)(=O)=O)c(OC3CCCCC3)c2)cc1)[C@H](O)c1ccc(O)cc1,0.35 nM,110 nM,39.7 ng·h/mL,5.3 ng/mL,–,–,> 10000 nM,3.5 h,11 mL/min/kg,25%,–
CC(=O)Nc1ccc([C@@H](O)CNCCc2ccc(-c3ccc(C(=O)NS(C)(=O)=O)c(OC4CCCCC4)c3)cc2)cn1,0.23 nM,> 1000 nM,86.5 ng·h/mL,16.2 ng/mL,–,–,–,1.8 h,8.9 mL/min/kg,43%,–
CS(=O)(=O)NC(=O)c1ccc(-c2ccc(C[C@@H](CO)NC[C@H](O)c3ccccc3)cc2)cc1OC1CCCCC1,0.82 nM,> 1000 nM,654 ng·h/mL,59.1 ng/mL,–,–,–,5 h,2.4 mL/min/kg,95%,–
CC(C)Oc1cc(-c2ccc(CCNC[C@H](O)c3ccc(N)cc3)cc2)ccc1C(=O)NS(C)(=O)=O,–,> 1000 nM,–,–,–,–,–,–,–,–,–
CC(C)Oc1cc(-c2ccc(CCNC[C@H](O)c3ccc(O)c(NS(C)(=O)=O)c3)cc2)ccc1C(=O)NS(C)(=O)=O,0.26 nM,150 nM,4.4 ng·h/mL,1.1 ng/mL,–,–,–,–,–,–,–
CC(C)Oc1cc(-c2ccc(CCNC[C@H](O)c3cccc(N)c3)cc2)ccc1C(=O)NS(C)(=O)=O,6 nM,> 1000 nM,143 ng·h/mL,17.2 ng/mL,–,–,–,4.9 h,5.1 mL/min/kg,46%,–
COc1ccc([C@@H](O)[C@H](C)NCCc2ccc(-c3ccc(C(=O)NS(C)(=O)=O)c(OC4CCCCC4)c3)cc2)cc1,28 nM,> 1000 nM,–,–,–,–,–,–,–,–,–
